Values quoted from earlier work as cited in patent US20010041741A1, “Composition for improvement of cellular nutrition and mitochondrial energetics” (priority 1997, published 2001).
Read-outs that look alike come from different tables or passages of the source.

Assays:
[1] = tested on: animals and patients with heart failure or myocardial ischemia; conditions: L-carnitine 3-5 grams, proprionyl-1-carnitine 1.5-3.0 grams
[2] = not given; remark: listed apart in the source
[3] = tested on: patients with heart failure; conditions: creatine supplement
[4] = tested on: patients suffering from congestive heart failure; conditions: oral dose of 1 gram three times per day
[5] = tested on: in-patients with heart failure and on long-term furosemide therapy

In the case of C[N+](C)(C)C[C@H](O)CC(=O)[O-] [L-carnitine, 3-hydroxy-4-N-trimethylaminobutyric acid], the “Time of peak plasma concentration” value (following oral administration) is listed as 3 h, the “T½ of plasma decay” value (following oral administration) is listed as 3 to 4 h and the “Tolerance / adverse effects” value (in vivo) is listed as “well tolerated and no adverse effects have been described”. The Bioavailability (oral) was 5-20% and the Hemodynamics [1] was “significant hemodynamic improvement”.
For COC1=C(OC)C(=O)C(C/C=C(\C)CC/C=C(\C)CC/C=C(\C)CC/C=C(\C)CC/C=C(\C)CC/C=C(\C)CC/C=C(\C)CC/C=C(\C)CC/C=C(\C)CCC=C(C)C)=C(C)C1=O [Ubiquinone, 2,3 dimethoxy-5 methyl-6-decaprenyl benzoquinone], the “Increase of mean steady state level in plasma” value ([2]; after 4 days of dosing at 100 mg 3 times daily) is given as 4-7 fold, the “Liver enzymes (LDH, SGOT)” value ([2]; doses of 300 mg/day) is given as “asymptomatic elevations” and the Side effects ([2]; in vivo) is given as “virtually absent”. The “T½ of plasma decay” value ([2]; oral) was 34 h, the “Time of plasma level peak” value ([2]; oral absorption) was 5 to 10 h and the “Share of an oral dose taken up by the myocardium” value ([2]; oral, large hepatic first pass effect) was 2-5%.
In the case of CN(CC(=O)O)C(=N)N [creatine, Creatine], the Cardiac ejection fraction [3] is given as “did not increase” and the “Skeletal muscle creatine phosphate, muscle strength and endurance” value [3] is given as “significantly increased”.
For CCC(=O)O[C@H](CC(=O)[O-])C[N+](C)(C)C [proprionyl-1-carnitine, Proprionyl-1-carnitine], the Hemodynamics [1] is given as “significant hemodynamic improvement”.
For NCCS(=O)(=O)O [taurine, 2-aminoethanesulfonic acid], the “Hemodynamic state and functional capacity” value [4] is listed as “improve both hemodynamic state and functional capacity” and the Tolerance [4] is listed as “extremely well tolerated”.
For Cc1ncc(C[n+]2csc(CCO)c2C)c(N)n1 [thiamine, Thiamine], the “Mean left ventricular ejection fraction” value ([5]; after one week, 200 mg intravenous thiamine) is listed as “increased significantly”, the “Increase of left ventricular ejection fraction” value ([5]; after six weeks of oral thiamine supplementation, 200 mg/day) is listed as 22% and the “Diuresis, excretion of sodium and water” value ([5]; within two days of thiamine supplementation, versus placebo) is listed as “significant diuresis with increased excretion of sodium and water”.
